Reference: patent US9963464B2, “Macrocyclic compounds” (Bayer Pharma Aktiengesellschaft, priority 2014, dated 2018)

Tests used:
[1] = molecular target: T1, human PTEFb (CDK9/Cyclin T1) (Homo sapiens, UniProt P50750); experiment: Surface plasmon resonance PTEFb; format: binding; settings: SPR; for koff: read-out: Dissociation rate constant koff; for Target resident time: 1/koff
T1 construct: purchased ProQinase, Freiburg, Germany
Description: 8. Surface Plasmon Resonance PTEFb
The term “surface plasmon resonance”, as used herein, refers to an optical phenomenon that allows for the analysis of the reversible associations of biological molecules in real time within a biosensor matrix, for example using the Biacore® system (GE Healthcare Biosciences, Uppsala, Sweden). Biacore® uses the optical properties of surface plasmon resonance (SPR) to detect alterations in the refractive index of a buffer, which changes as molecules in solution interact with the target immobilized on the surface. In brief, proteins are covalently bound to the dextran matrix at a known concentration and a ligand for the protein is injected through the dextran matrix. Near infrared light, directed onto the opposite side of the sensor chip surface is reflected and also induces an evanescent wave in the gold film, which in turn, causes an intensity dip in the reflected light at a particular angle known as the resonance angle. If the refractive index of the sensor chip surface is altered (e.g. by compound binding to the bound protein) a shift occurs in the resonance angle. This angle shift can be measured.
The term “KD”, as used herein, is intended to refer to the equilibrium dissociation constant of a particular compound/target protein complex.
The term “koff”, as used herein, is intended to refer to the off-rate, i.e. the dissociation rate constant of a particular compound/target protein complex.
The term “target residence time”, as used herein, is intended to refer to the inverse of the rate of dissociation rate constant (1/koff) of a particular compound/target protein complex.
The ability of the compounds according to the invention to bind human PTEFb may be determined using surface plasmon resonance (SPR). KD values and koff values may be measured using a Biacore® T200 instrument (GE Healthcare, Uppsala, Sweden).
For SPR measurements, recombinant human PTEFb (CDK9/Cyclin T1 recombinant human active protein kinase purchased from ProQinase, Freiburg, Germany) is immobilized using standard amine coupling (Johnsson B et al, Anal Biochem. 1991 Nov. 1; 198(2):268-77). Briefly, carboxymethylated dextran biosensor chips (CM7, GE Healthcare) are activated with N-ethyl-N′-(3-dimethylaminopropyl)-carbodiimide hydrochloride (EDC) and N-hydroxysuccinimide (NHS) according to the supplier's instructions. Human PTEFb is diluted in 1×HBS-EP+(GE Healthcare) into 30 μg/ml and injected on the activated chip surface. Subsequently, a 1:1 solution of 1 M ethanolamine-HCl (GE Healthcare) and 1×HBS-EP is injected to block unreacted groups, resulting in approximately 4000 response units (RU) of immobilized protein. A reference surface is generated by treatment with NHS-EDC and ethanolamine-HCl. Compounds are dissolved in 100% dimethylsulfoxide (DMSO, Sigma-Aldrich, Germany) to a concentration of 10 mM and subsequently diluted in running buffer (1×HBS-EP+pH 7.4 [generated from HBS-EP+Buffer 10× (GE Healthcare): 0.1 M HEPES, 1.5 M NaCl, 30 mM EDTA and 0.5% v/v Surfactant P20], 1% v/v DMSO). For kinetic measurements, four-fold serial dilutions of compound (0.39 nM to 100 nM) are injected over immobilized protein. Binding kinetics is measured at 25° C. with a flow rate of 50 μl/min in running buffer. Compound concentrations are injected for 60 s followed by a dissociation time of 1800 s. The resulting sensorgrams are double-referenced against the reference surface as well as against blank injections.
The double-referenced sensorgrams are fit to a simple reversible Langmuir 1:1 reaction mechanism as implemented in the Biacore® T200 evaluation software 2.0 (GE Healthcare). In cases were full compound dissociation has not occurred at the end of the dissociation phase, the Rmax parameter (response at saturation) is fit as local variable. In all other cases, Rmax is fit as global variable.

Caco-2 permeation assay = format: in vitro ADME; settings: human, pH 7.2, Caco-2 monolayer, 2 μM test compound; for Papp A→B at 2 h, 2 μM: read-out: Papp A-B (Mari); for Papp B→A at 2 h, 2 μM: read-out: Papp B-A (Mari); for efflux ratio at 2 h, 2 μM: read-out: Efflux ratio (Papp B-A/Papp A-B)
Protocol: 5. Caco-2 Permeation Assay:
Caco-2 cells (purchased from DSMZ Braunschweig, Germany) were seeded at a density of 4.5×10^4 cells per well on 24 well insert plates, 0.4 μm pore size, and grown for 15 days in DMEM medium supplemented with 10% fetal bovine serum, 1% GlutaMAX (100×, GIBCO), 100 U/mL penicillin, 100 μg/mL streptomycin (GIBCO) and 1% non essential amino acids (100×). Cells were maintained at 37° C. in a humidified 5% CO2 atmosphere. Medium was changed every 2-3 day. Before running the permeation assay, the culture medium was replaced by a FCS-free hepes-carbonate transport buffer (pH 7.2). For assessment of monolayer integrity the transepithelial electrical resistance (TEER) was measured. Test compounds were predissolved in DMSO and added either to the apical or basolateral compartment in final concentration of 2 μM in transport buffer. Before and after 2 h incubation at 37° C. samples were taken from both compartments. Analysis of compound content was done after precipitation with methanol by LC/MS/MS analysis. Permeability (Papp) was calculated in the apical to basolateral (A→B) and basolateral to apical (B→A) directions. The apparent permeability was calculated using following equation: Papp=(Vr/Po)(1/S)(P2/t) Where Vr is the volume of medium in the receiver chamber, Po is the measured peak area or height of the test drug in the donor chamber at t=o, S the surface area of the monolayer, P2 is the measured peak area of the test drug in the acceptor chamber after 2 h of incubation, and t is the incubation time. The efflux ratio basolateral (B) to apical (A) was calculated by dividing the Papp B-A by the Papp A-B. In addition the compound recovery was calculated.

[2] = 25° C., below 5E-5 s^-1 not resolvable

T1 sequence (P50750 whole entry): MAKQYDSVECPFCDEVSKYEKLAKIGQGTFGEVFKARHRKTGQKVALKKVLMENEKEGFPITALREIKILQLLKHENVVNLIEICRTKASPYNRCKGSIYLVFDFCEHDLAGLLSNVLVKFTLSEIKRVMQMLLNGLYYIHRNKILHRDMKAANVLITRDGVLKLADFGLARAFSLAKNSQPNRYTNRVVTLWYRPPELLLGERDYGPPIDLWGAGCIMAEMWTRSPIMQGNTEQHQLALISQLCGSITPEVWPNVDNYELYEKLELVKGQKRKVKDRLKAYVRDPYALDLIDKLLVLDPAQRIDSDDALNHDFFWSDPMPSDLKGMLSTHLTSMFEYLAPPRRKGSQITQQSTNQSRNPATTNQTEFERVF
T1 sequence (O60563 whole entry partner): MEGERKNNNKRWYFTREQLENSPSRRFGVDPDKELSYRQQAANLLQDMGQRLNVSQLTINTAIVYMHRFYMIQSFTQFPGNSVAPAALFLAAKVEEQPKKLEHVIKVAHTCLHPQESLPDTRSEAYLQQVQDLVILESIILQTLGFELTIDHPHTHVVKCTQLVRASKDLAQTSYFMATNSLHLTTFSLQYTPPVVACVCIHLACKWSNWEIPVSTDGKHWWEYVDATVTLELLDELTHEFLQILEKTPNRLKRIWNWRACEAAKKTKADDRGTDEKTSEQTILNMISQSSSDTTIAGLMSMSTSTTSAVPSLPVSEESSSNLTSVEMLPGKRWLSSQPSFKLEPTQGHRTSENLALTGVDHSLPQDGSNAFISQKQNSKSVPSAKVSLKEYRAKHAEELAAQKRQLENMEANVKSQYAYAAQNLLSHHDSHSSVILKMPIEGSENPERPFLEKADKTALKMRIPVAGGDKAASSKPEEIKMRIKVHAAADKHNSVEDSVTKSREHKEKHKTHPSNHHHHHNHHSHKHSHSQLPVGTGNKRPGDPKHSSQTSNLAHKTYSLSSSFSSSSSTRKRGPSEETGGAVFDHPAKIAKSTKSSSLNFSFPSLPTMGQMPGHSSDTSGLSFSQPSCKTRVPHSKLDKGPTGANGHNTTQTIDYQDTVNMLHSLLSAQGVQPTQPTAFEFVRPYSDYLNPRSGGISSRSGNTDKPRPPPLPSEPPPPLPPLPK

SMILES	koff [1, 2] [s⁻¹]	Target resident time [1] [min]	Papp A→B at 2 h, 2 μM (Caco-2 permeation assay) [nm/s]	Papp B→A at 2 h, 2 μM (Caco-2 permeation assay) [nm/s]	efflux ratio at 2 h, 2 μM (Caco-2 permeation assay)	Dissociation rate constant koff [1, 2] [s⁻¹]
C[S+]([O-])Cc1cc2nc(c1)OCCOc1cc(F)ccc1-c1cc(ncc1F)N2 (racemic) [Example 10, (rac)-14,18-difluoro-7-[(methylsulfinyl)methyl]-2,3-dihydro-10H-9,5-(azeno)-11,15-(metheno)-1,4,10,12-benzodioxadiazacycloheptadecine]	0.00245	6.8				
CS(=N)(=O)Cc1cc2nc(c1)OCCOc1cc(F)ccc1-c1cc(ncc1F)N2 (racemic) [Example 11, (rac)-14,18-difluoro-7-[(S-methylsulfonimidoyl)methyl]-2,3-dihydro-10H-9,5-(azeno)-11,15-(metheno)-1,4,10,12-benzodioxadiazacycloheptadecine]	0.0029	5.7				
CS(=N)(=O)Cc1cc2nc(c1)OCCCOc1cc(F)ccc1-c1cc(ncc1F)N2 (single isomer, unassigned; enantiomer 2) [Example 7, 15,19-Difluoro-8-[(S-methylsulfonimidoyl)methyl]-3,4-dihydro-2H,11H-10,6-(azeno)-12,16-(metheno)-1,5,11,13-benzodioxadiazacyclooctadecine; Enantiomer 2]		>333				< 5e-05
CSCc1cc2nc(c1)OCCCOc1cc(F)ccc1-c1cc(ncc1F)N2 [Example 3, 15,19-Difluoro-8-[(methylsulfanyl)methyl]-3,4-dihydro-2H,11H-10,6-(azeno)-12,16-(metheno)-1,5,11,13-benzodioxadiazacyclooctadecine]	< 5e-05	>333				
CS(=N)(=O)Cc1cc2nc(c1)OCCCOc1cc(F)ccc1-c1cc(ncc1F)N2 (single isomer, unassigned; enantiomer 1) [Example 6, 15,19-Difluoro-8-[(S-methylsulfonimidoyl)methyl]-3,4-dihydro-2H,11H-10,6-(azeno)-12,16-(metheno)-1,5,11,13-benzodioxadiazacyclooctadecine; Enantiomer 1]	< 5e-05	>333				
C[S+]([O-])Cc1cc2nc(c1)OCCCOc1cc(F)ccc1-c1cc(ncc1F)N2 (racemic) [Example 4, (rac)-15,19-Difluoro-8-[(methylsulfinyl)methyl]-3,4-dihydro-2H,11H-10,6-(azeno)-12,16-(metheno)-1,5,11,13-benzodioxadiazacyclooctadecine]	< 5e-05	>333				
CSCc1cc2nc(c1)OCCOc1cc(F)ccc1-c1cc(ncc1F)N2 [Example 9, 14,18-Difluoro-7-[(methylsulfanyl)methyl]-2,3-dihydro-10H-9,5-(azeno)-11,15-(metheno)-1,4,10,12-benzodioxadiazacycloheptadecine]	0.00024	69.4				

The next lines start with the values.

koff [1, 2] [s⁻¹]	Target resident time [1] [min]	Papp A→B at 2 h, 2 μM (Caco-2 permeation assay) [nm/s]	Papp B→A at 2 h, 2 μM (Caco-2 permeation assay) [nm/s]	efflux ratio at 2 h, 2 μM (Caco-2 permeation assay)	Dissociation rate constant koff [1, 2] [s⁻¹]	SMILES
< 5e-05	>333					CS(=N)(=O)Cc1cc2nc(c1)OCCCCOc1cc(F)ccc1-c1cc(ncc1F)N2 (racemic) [Example 14, (rac)-16,20-difluoro-9-[(S-methylsulfonimidoyl)methyl]-2,3,4,5-tetrahydro-12H-11,7-(azeno)-13,17-(metheno)-1,6,12,14-benzodioxadiazacyclononadecine]
		4	262	74.5		CS(=O)(Cc1cc2nc(c1)OCCCOc1cc(F)ccc1-c1cc(ncc1F)N2)=NC(=O)OCCN (racemic) [Example 25, (rac)-2-aminoethyl [{[15,19-difluoro-3,4-dihydro-2H,11H-10,6-(azeno)-12,16-(metheno)-1,5,11,13-benzodioxadiazacyclooctadecin-8-yl]methyl}(methyl)oxido-λ^6-sulfanylidene]carbamate]
		6	442	69.7		CS(=O)(Cc1cc2nc(c1)OCCCOc1cc(F)ccc1-c1cc(ncc1F)N2)=NS(=O)(=O)CCN (racemic) [Example 23, (rac)-2-amino-N-[{[15,19-difluoro-3,4-dihydro-2H,11H-10,6-(azeno)-12,16-(metheno)-1,5,11,13-benzodioxadiazacyclooctadecin-8-yl]methyl}(methyl)oxido-λ^6-sulfanylidene]ethanesulfonamide]
< 5e-05	>333					CS(=O)(Cc1cc2cc(c1)OCCCOc1cc(F)ccc1-c1nc(ncc1F)N2)=NC(=O)C(F)(F)F (racemic) [Example 16, (rac)-N-[{[15,19-difluoro-3,4-dihydro-2H,11H-12,16-(azeno)-10,6-(metheno)-1,5,11,13-benzodioxadiazacyclooctadecin-8-yl]methyl}(methyl)oxido-λ^6-sulfanylidene]-2,2,2-trifluoroacetamide]
		87	88	1		CCNC(=O)N=S(C)(=O)Cc1cc2nc(c1)OCCCOc1cc(F)ccc1-c1cc(ncc1F)N2 (racemic) [Example 17, (rac)-1-[{[15,19-difluoro-3,4-dihydro-2H,11H-10,6-(azeno)-12,16-(metheno)-1,5,11,13-benzodioxadiazacyclooctadecin-8-yl]methyl}(methyl)oxido-λ^6-sulfanylidene]-3-ethylurea]
< 5e-05	>333					CSCc1cc2nc(c1)OCCCCOc1cc(F)ccc1-c1cc(ncc1F)N2 [Example 12, 16,20-Difluoro-9-[(methylsulfanyl)methyl]-2,3,4,5-tetrahydro-12H-11,7-(azeno)-13,17-(metheno)-1,6,12,14-benzodioxadiazacyclononadecine]
< 5e-05	>333					C[S+]([O-])Cc1cc2nc(c1)OCCCCOc1cc(F)ccc1-c1cc(ncc1F)N2 (racemic) [Example 13, (rac)-16,20-difluoro-9-[(methylsulfinyl)methyl]-2,3,4,5-tetrahydro-12H-11,7-(azeno)-13,17-(metheno)-1,6,12,14-benzodioxadiazacyclononadecine]
